Data: patent US12421211B2, “Heterocyclic compounds” (Hoffmann-La Roche Inc., priority 2021, dated 2025)
Structures can show the parent of a compound that is named as a salt. Where two headings read alike, the source gives them in different places.

Tested on: Acinetobacter baumannii ATCC17961
Assay: Antimicrobial susceptibility testing: 90% growth inhibitory concentration (IC90) determination
Assay type: cell-based
Conditions: read-out: ATCC 17961 IC90
Method: Assay Procedures Antimicrobial Susceptibility Testing: 90% Growth Inhibitory Concentration (IC90) Determination
The in vitro antimicrobial activity of the compounds was determined according to the following procedure:
The assay used a 10-points Iso-Sensitest broth medium to measure quantitatively the in vitro activity of the compounds against Acinetobacter baumannii ATCC17961.
Stock compounds in DMSO were serially twofold diluted (e.g. range from 50 to 0.097 μM final concentration) in 384 wells microtiter plates and inoculated with 49 μl the bacterial suspension in Iso-Sensitest medium to have a final cell concentration of ˜5×10^(5) CFU/ml in a final volume/well of 50 ul/well. Microtiter plates were incubated at 35±2° C.
Bacterial cell growth was determined with the measurement of optical density at λ=600 nm each 20 minutes over a time course of 16h. Growth inhibition was calculated during the logarithmic growth of the bacterial cells with determination of the concentration inhibiting 50% (IC50) and 90% (IC90) of the growth.
Table 1 provides the 90% growth inhibitory concentrations (IC90) in micromoles per liter of the compounds of present invention obtained against the strain Acinetobacter baumannii ATCC17961.

[1] = Acinetobacter baumannii, ATCC17961, 16 h, 90% growth inhibitory concentration, Acinetobacter baumannii ATCC17961, Iso-Sensitest broth, OD 600 nm over 16 h

Compound | IC90 [1] [nM] | also measured
COCCn1ncc(-c2ccc(-c3cnc(C(=O)Nc4ccc(C(=O)N5CCN(C(=O)C[C@@H]6CCNC6)CC5)c(Cl)c4)n3C)c(F)c2F)c1C [Example E2, N-[3-chloro-4-[4-[2-[(3S)-pyrrolidin-3-yl]acetyl]piperazine-1-carbonyl]phenyl]-5-[2,3-difluoro-4-[1-(2-methoxyethyl)-5-methyl-pyrazol-4-yl]phenyl]-1-methyl-imidazole-2-carboxamide; formic acid] | 48 | 
Cc1n[nH]cc1-c1ccc(-c2cnc(C(=O)Nc3ccc(C(=O)N4CCN(C(=O)CN(C)C)CC4)c(Cl)c3)n2C)cc1 [Example E15, N-[3-chloro-4-[4-[2-(dimethylamino)acetyl]piperazine-1-carbonyl]phenyl]-1-methyl-5-[4-(3-methyl-1H-pyrazol-4-yl)phenyl]imidazole-2-carboxamide; formic acid] | 180 | 
CCc1nn(CCOC)cc1-c1ccc(-c2cnc(C(=O)Nc3ccc(C(=O)N4CCN(C(=O)CC5(O)CC[N+](C)(C)CC5)CC4)c(Cl)c3)n2C)c(F)c1F [Example F24, N-[3-chloro-4-[4-[2-(4-hydroxy-1,1-dimethyl-piperidin-1-ium-4-yl)acetyl]piperazine-1-carbonyl]phenyl]-5-[4-[3-ethyl-1-(2-methoxyethyl)pyrazol-4-yl]-2,3-difluoro-phenyl]-1-methyl-imidazole-2-carboxamide; formate] | 590 | 
COCCn1cc(-c2ccc(-c3cnc(C(=O)Nc4ccc(C(=O)N5CCN(C(=O)C6[C@H]7C[N+](C)(C)C[C@@H]67)CC5)c(Cl)c4)n3C)c(F)c2F)c(C)n1 (stereo partly drawn) [Example B25, N-[3-chloro-4-[4-[(1R,5S)-3,3-dimethyl-3-azoniabicyclo[3.10]hexane-6-carbonyl]piperazine-1-carbonyl]phenyl]-5-[2,3-difluoro-4-[1-(2-methoxyethyl)-3-methyl-pyrazol-4-yl]phenyl]-1-methyl-imidazole-2-carboxamide; formate] |  | IC90 (90% growth inhibitory concentration, Acinetobacter baumannii ATCC17961, Iso-Sensitest broth, OD 600 nm over 16 h): 270 nM
Cc1nn(CCNC(=O)NC(C)(C)C)cc1-c1ccc(-c2cnc(C(=O)Nc3ccc(C(=O)N4CCN(C(=O)C5CC[N+](C)(C)CC5)CC4)c(Cl)c3)n2C)c(F)c1F [Example H5, 5-[4-[1-[2-(tert-butylcarbamoylamino)ethyl]-3-methyl-pyrazol-4-yl]-2,3-difluoro-phenyl]-N-[3-chloro-4-[4-(1,1-dimethylpiperidin-1-ium-4-carbonyl)piperazine-1-carbonyl]phenyl]-1-methyl-imidazole-2-carboxamide; formate] | 170 | 
Cn1c(-c2ccc(-c3c[nH]nc3-c3cccc(F)c3)c(F)c2F)cnc1C(=O)Nc1ccc(C(=O)N2CCN(C(=O)C3CC[N+](C)(C)CC3)CC2)c(Cl)c1 [Example F45, N-[3-chloro-4-[4-(1,1-dimethylpiperidin-1-ium-4-carbonyl)piperazine-1-carbonyl]phenyl]-5-[2,3-difluoro-4-[3-(3-fluorophenyl)-1H-pyrazol-4-yl]phenyl]-1-methyl-imidazole-2-carboxamide; formate] | 310 | 
Cc1nn(CC2CCOCC2)cc1-c1ccc(-c2cnc(C(=O)Nc3ccc(C(=O)N4CCN(C(=O)C5CC[N+](C)(C)CC5)CC4)c(Cl)c3)n2C)c(F)c1F [Example F39, N-[3-chloro-4-[4-(1,1-dimethylpiperidin-1-ium-4-carbonyl)piperazine-1-carbonyl]phenyl]-5-[2,3-difluoro-4-[3-methyl-1-(tetrahydropyran-4-ylmethyl)pyrazol-4-yl]phenyl]-1-methyl-imidazole-2-carboxamide; formate] | 340 | 
COCCn1nc(C)c(-c2ccc(-c3cnc(C(=O)Nc4ccc(C(=O)N5CCN(C(=O)C6CC[N+](C)(CCO)CC6)CC5)c(Cl)c4)n3C)c(F)c2F)c1C (centres unmarked) [Example B8, N-[3-chloro-4-[4-[1-(2-hydroxyethyl)-1-methyl-piperidin-1-ium-4-carbonyl]piperazine-1-carbonyl]phenyl]-5-[2,3-difluoro-4-[1-(2-methoxyethyl)-3,5-dimethyl-pyrazol-4-yl]phenyl]-1-methyl-imidazole-2-carboxamide; formate] |  | IC90 (Acinetobacter baumannii, ATCC17961, 16 h): 280 nM
